Source: ChEMBL document CHEMBL3430912, “GSK Tres Cantos Anti-Kinetoplastid Screening (TCAKS) Data”

Assays:
[1] = system: Trypanosoma cruzi; assay: (§1) GSK_TCAKS: pIC50 Trypanosoma cruzi Imaging: Infected Cells. […] Cells were then washed once with PBS before infection. T. cruzi trypomastigotes, collected at days 5 to 8 after infection from LLC-MK2 parasite infected cultures, were allowed to swim out for 4h at 37C from a centrifuged pellet (2,500 rpm/10 min/room temperature). Trypomastigotes were then collected and counted in a CASY Cell Counter. Trypomastigotes, in supplemented DMEM, were added to H9c2 cultures in a multiplicity of infection of 1 and incubated for 18 h. Cells were washed once with PBS before incubation of the infected H9c2 monolayer with trypsin (Life-Technologies) to detach cells from the flask. Cells were counted in a CASY Cell Counter using a 150 um capillary and their density set at 5 * 10^4 cells per mL in supplemented assay DMEM. Infected H9c2 were dispensed into 384-well poly-lysine coated assay plates at 50uL per well using a Multidrop Combi dispenser. After seeding them, the plates were incubated at 37C, 5% CO2 for 72h. Cultures were then fixed and stained by addition of 50 uL of a solution containing 8% formaldehyde and 4 uM DRAQ5 DNA dye (BioStatus, UK) per well. […] Five images were collected per well for reliable statistical analysis. Automated image analysis was performed with a script developed on Acapella High Content Imaging and Analysis Software (PerkinElmer). Output: percentage of infected cells per well as a second infection marker.; type: functional, organism-based, Rattus norvegicus; conditions: H9c2, 4 h
[2] = system: Trypanosoma cruzi; assay: as §1, with “H2C9” for “Trypanosoma cruzi”, “H9c2 Host Cardiomyocytes.” for “Infected Cells.”, “Number” for “percentage”, “H9c2 Host Cardiomyocytes nuclei to determine drug-related cytotoxicity.” for “infected cells per well as a second infection marker.”; type: functional, organism-based, Rattus norvegicus; conditions: H9c2, 4 h
[3] = system: Trypanosoma cruzi; assay: GSK_TCAKS: pIC50 Trypanosoma cruzi viability assay using beta-GAL activity. This assay was run at single shot at 5uM compound concentration per well. The biological reagents consisted of NIH-3T3 host cells and trypomastigotes parasitic cells; both cell types were set to a 3.3 * 10^5 cells/mL dilution in assay DMEM by means of a CASY cell counter device using a 60um capillary. 6 uL of the mixture were dispensed per well (about 1 * 10^3 host-cells and 1 * 10^3 parasites) with a Multidrop Combi dispenser. […] In all wells, the percentage of DMSO never exceeded 0.5%. Plates incubated for four days at 37C, 5% CO2. The substrate used for the assay fluorescence intensity (FLINT) readout was resorufin-beta-D-galactopiranoside (Sigma-Aldrich) at 5uM per well. It was diluted in PBS supplemented with the soft detergent Igepal (Fluka).; type: functional, organism-based, Mus musculus; conditions: Tulahuen, NIH3T3
[4] = system: Leishmania donovani; assay: GSK_TCAKS: pIC50 Leishmania donovani viability assay using fluorescence intensity. Assay plates (1536-well) were prepared by adding 30nL per well of compound. For single shot assay, the final compound concentration was 5uM. […] Briefly, eGFP LdBOB axenic amastigotes were harvested, fixed and counted in a CASY cell counter (Roche-Applied Science). A final concentration of 1.5 * 10^5 cells per well were prepared in amastigote media containing 500 U/mL penicillin/streptomycin (Invitrogen) and 6uL was dispensed to each experimental well using a Multidrop Combi dispenser (Thermo Scientific). 6uL of assay media was dispensed to control columns used as reference for 100% compound response. Following incubation for 72 h at 37C, 5% CO2, 2 uL of resazurin was added to each well at a final concentration of 0.5 mM in phosphate buffered saline (PBS) with IGEPAL (Sigma-Aldrich), 0.05% (v/v).; type: functional, organism-based
[5] = system: Leishmania donovani; assay: GSK_TCAKS: pIC50 Leishmania donovani Imaging: THP-1 Host Macrophages. Assay plates (384-well) were prepared by adding 250nL of compound to each well. For single shot assay, the final compound concentration was 5 uM. […] Automated image analysis was performed with a script developed on Acapella High Content Imaging and Analysis Software (PerkinElmer). Output: THP-1 cell count were reported for each well.; type: functional, organism-based, Homo sapiens
[6] = system: Trypanosoma cruzi; assay: GSK_TCAKS: pIC50 Trypanosoma cruzi Imaging: Amastigotes/Cell. […] Cells were then washed once with PBS before infection. T. cruzi trypomastigotes, collected at days 5 to 8 after infection from LLC-MK2 parasite infected cultures, were allowed to swim out for 4h at 37C from a centrifuged pellet (2,500 rpm/10 min/room temperature). Trypomastigotes were then collected and counted in a CASY Cell Counter. Trypomastigotes, in supplemented DMEM, were added to H9c2 cultures in a multiplicity of infection of 1 and incubated for 18 h. Cells were washed once with PBS before incubation of the infected H9c2 monolayer with trypsin (Life-Technologies) to detach cells from the flask. Cells were counted in a CASY Cell Counter using a 150 um capillary and their density set at 5 * 10^4 cells per mL in supplemented assay DMEM. Infected H9c2 were dispensed into 384-well poly-lysine coated assay plates at 50uL per well using a Multidrop Combi dispenser. After seeding them, the plates were incubated at 37C, 5% CO2 for 72h. Cultures were then fixed and stained by addition of 50 uL of a solution containing 8% formaldehyde and 4 uM DRAQ5 DNA dye (BioStatus, UK) per well. […] Five images were collected per well for reliable statistical analysis. Automated image analysis was performed with a script developed on Acapella High Content Imaging and Analysis Software (PerkinElmer). Output: number of amastigotes per cell as infection level measurement.; type: functional, organism-based, Rattus norvegicus; conditions: H9c2, 4 h
[7] = target: Sterol 14-alpha demethylase (Trypanosoma cruzi (strain CL Brener), UniProt Q7Z1V1); assay: GSK_TCAKS: pIC50 CYP51 from Trypanosoma cruzi.; type: functional
Sequence of Sterol 14-alpha demethylase (Q7Z1V1 whole entry): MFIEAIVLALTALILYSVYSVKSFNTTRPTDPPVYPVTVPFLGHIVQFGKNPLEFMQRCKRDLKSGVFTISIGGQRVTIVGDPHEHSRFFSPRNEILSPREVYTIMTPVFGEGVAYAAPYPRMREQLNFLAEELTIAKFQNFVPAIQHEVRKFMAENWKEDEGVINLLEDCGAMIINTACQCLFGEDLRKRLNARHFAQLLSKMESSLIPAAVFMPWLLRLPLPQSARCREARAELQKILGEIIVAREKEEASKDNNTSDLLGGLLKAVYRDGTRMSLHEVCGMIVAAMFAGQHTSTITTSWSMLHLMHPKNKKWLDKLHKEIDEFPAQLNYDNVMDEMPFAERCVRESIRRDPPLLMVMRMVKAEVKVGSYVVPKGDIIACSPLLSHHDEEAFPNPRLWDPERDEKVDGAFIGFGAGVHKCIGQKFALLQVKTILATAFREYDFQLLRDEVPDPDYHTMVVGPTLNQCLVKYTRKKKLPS

[8] = system: Leishmania donovani; assay: GSK_TCAKS: pIC50 Leishmania donovani Imaging: Amastigotes/Macrophages. Assay plates (384-well) were prepared by adding 250nL of compound to each well. For single shot assay, the final compound concentration was 5 uM. […] Automated image analysis was performed with a script developed on Acapella High Content Imaging and Analysis Software (PerkinElmer). Output: Average number of amastigotes per macrophage cell were reported for each well.; type: functional, organism-based, Homo sapiens; conditions: THP-1
[9] = GSK_TCAKS: pIC50 HepG2 human cell line viability assay using luminiscence. […] Seeding density was checked to ensure that new mono-layers were not more than 50% confluent at the time of harvesting. Cell suspension was added to 500 mL of the same medium at a final density of 1.2 * 10^5 cells/mL. This cell suspension was dispensed (25 uL, 3000 cells per well) into 384-well clear-bottom plates using a Multidrop Combi dispenser. Prior to addition of the cell suspension, the screening compounds (250 nL) were pre-dispensed into the plates with an Echo liquid handler. Plates were incubated for 48 h at 37C, 5% CO2. After incubation, plates equilibrated at room temperature for 30 min before proceeding to develop the luminescent signal. The signal developer, CellTiter-Glo Reagent, was allowed to equilibrate at room temperature for 30 min and added to the plates (25uL per well) using a Multidrop Combi dispenser. Plates were left for 10 min at room temperature for stabilization and then read using a ViewLux.; type: toxicity, cell-based
[10] = system: Leishmania donovani; assay: GSK_TCAKS: pIC50 Leishmania donovani Imaging: Infected Macrophages. Assay plates (384-well) were prepared by adding 250nL of compound to each well. For single shot assay, the final compound concentration was 5 uM. […] Automated image analysis was performed with a script developed on Acapella High Content Imaging and Analysis Software (PerkinElmer). Output: Percent of infected macrophage cells were reported for each well.; type: functional, organism-based, Homo sapiens; conditions: THP-1
[11] = system: Trypanosoma brucei brucei; assay: GSK_TCAKS: pIC50 Trypanosoma brucei viability assay using fluorescence intensity. Assay plates (1536-well) were prepared by dispensing 25nL of compound solution per well using an Echo acoustic dispenser (Labcyte).; type: functional, organism-based; conditions: Lister 427, 2 h
[12] = system: Trypanosoma brucei brucei; assay: GSK_TCAKS: pIC50 Trypanosoma brucei viability assay using luminiscence. Assay plates (1536-well) were prepared. T. brucei cultures were harvested and counted in a CASY cell counter. A parasite suspension was prepared at a final concentration of 5 * 10^4 cells/mL in complete HMI9 medium and 6uL was dispensed to all wells containing compounds using a Multidrop Combi dispenser. 6uL of HMI9 media with 0.4% DMSO were dispensed to control columns. Plates were incubated for 24 h at 37C, 5% CO2 then tempered for 10 min at room temperature. ATP content was quantified by adding 4 uL of CellTiter-Glo Reagent (Promega) according to the manufacturer's instructions. Luminescence was measured using a ViewLux.; type: functional, organism-based; conditions: Lister 427, CASY

Row | Structure (SMILES) | IC50 [1] | IC50 [2] | IC50 [3] | IC50 [4] | IC50 [5] | IC50 [6] | IC50 [7] | IC50 [8] | IC50 at 48 h [9] | IC50 [10] | IC50 [11] | IC50 [12]
1 | Cc1nn2c(=O)c3c([nH]c2c1-c1ccc(Br)cc1)CCCC3 | 1.58 µM | > 50.1 µM | 1 µM | 10 µM | > 50.1 µM | 0.794 µM | > 100 µM | 39.8 µM | > 100 µM | > 50.1 µM | 0.398 µM | 0.794 µM
2 | COc1ccc(C(=O)NC2CCN(CCn3c(=O)ccc4ncc(F)cc43)CC2)cc1Cl | 0.631 µM | > 50.1 µM | 0.501 µM | 3.98 µM | > 50.1 µM | 0.316 µM | 15.8 µM | 15.8 µM | > 100 µM | > 50.1 µM | 0.126 µM | 0.251 µM
3 | c1ccc2[nH]c(-c3ccc(N4CCCC4)nc3)nc2c1 | 1.58 µM | > 50.1 µM | 1 µM | 5.01 µM | 31.6 µM | 1 µM | > 100 µM | > 50.1 µM | > 100 µM | > 50.1 µM | 0.794 µM | 1 µM
4 | CC(c1ccc2c(c1)CCCC2)N(C)c1ncc2c(N)nc(N)nc2n1 (configuration not stated) | 0.0316 µM | 10 µM | 0.0316 µM | 2.51 µM | 25.1 µM | 0.01 µM | 25.1 µM | 0.794 µM | 50.1 µM | 2 µM | 15.8 µM | 12.6 µM
5 | CC(c1cc(Cl)cc(Cl)c1)N(C)c1ncc2c(N)nc(N)nc2n1 (configuration not stated) | 0.002 µM | 7.94 µM | 0.0631 µM | 0.794 µM | 31.6 µM | 0.001 µM | 39.8 µM | 0.251 µM | 63.1 µM | 0.794 µM | > 39.8 µM | 31.6 µM
6 | COc1ccnc2[nH]cc(-c3cc(C(=O)N[C@H](CO)c4ccccc4)co3)c12 | 20 µM | 0.316 µM | 1.26 µM | 25.1 µM | 0.794 µM | 7.94 µM | 0.794 µM | 2 µM | 15.8 µM | 7.94 µM | 0.00501 µM | 0.0126 µM
7 | COc1ccc(-c2cnc(NC(=O)c3cc(-c4ccccn4)n[nH]3)n2C)cc1 | 5.01 µM | > 50.1 µM | 3.55 µM | 3.98 µM | > 50.1 µM | 3.98 µM | 15.8 µM | 0.794 µM | > 100 µM | 1 µM | 0.398 µM | 10 µM
8 | CCCc1cc(C(=O)Nc2ncc(-c3cccc(Br)c3)n2C)[nH]n1 | 3.98 µM | > 50.1 µM | 2.51 µM | 6.31 µM | 31.6 µM | 2.51 µM | 25.1 µM | 3.98 µM | > 100 µM | 5.01 µM | 2.51 µM | 1.26 µM
9 | Cc1nn2c(NCCCO)c3c(nc2c1-c1cccs1)CCC3 | 50.1 µM | > 50.1 µM | 15.8 µM | 2 µM | > 50.1 µM | 5.01 µM | 25.1 µM | > 50.1 µM | > 100 µM | > 50.1 µM | 0.316 µM | 0.398 µM
10 | CC(C)S(=O)(=O)c1ccc(-c2cnc(N)c3cc(-c4ccnc(N)n4)ccc23)cc1 | 39.8 µM | 0.501 µM | 0.794 µM | 2 µM | 2.51 µM | 12.6 µM | 15.8 µM | 0.501 µM | 15.8 µM | 1.26 µM | 0.2 µM | 0.251 µM
11 | Cc1cc(Oc2cc(Cl)c(Cl)cc2Cl)n2ncnc2n1 | 25.1 µM | 7.94 µM | 5.01 µM | 15.8 µM | 10 µM | 10 µM | > 100 µM | 12.6 µM | 31.6 µM | 15.8 µM | 0.794 µM | 0.398 µM
